# Assay results reported in PubChem BioAssay (NCI).
# Values joined by “and” are separate entries in the source; they are usually repeats but may differ in a detail not shown here. Equal values may be shown once.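 Protocol summary: plate cells (96-well), add compound at 5 concentrations, incubate 48 h, interpolate endpoints linearly. Here, GI50 denotes the concentration required for 50% inhibition of growth. TGI is the concentration that stops growth completely.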
# What was measured:
# Experiment in all cases: NCI anticancer screen, dose series, 48 h
# [1] = test system: A498 renal
# [2] = test system: COLO 205 colon
# [3] = test system: SF-268 CNS
# [4] = test system: OVCAR-5 ovarian
# [5] = test system: MOLT-4 leukemia
# [6] = test system: OVCAR-3 ovarian
# [7] = test system: MALME-3M melanoma
# [8] = test system: BT-549 breast
# [9] = test system: SF-295 CNS
# [10] = test system: SR leukemia
Structure (SMILES),TGI [1],TGI [2],TGI [3] [µM],TGI [4],TGI [5],TGI [6] [µM],TGI [7],TGI [8],GI50 [1],GI50 [3] [µM],GI50 [4],GI50 [5],GI50 [9] [µM],TGI [9] [µM],GI50 [6],GI50 [7],GI50 [8],GI50 [10],TGI [10],GI50 [2]
O=C(O)c1ccccc1C(=O)Nc1cc2c(cc1Br)-c1ccccc1C2=O,> 100 µM,> 100 µM,> 100,> 100 µM,> 100 µM,> 100,> 100 µM,> 100 µM,,,,,,,,,,,,
NCCNc1nc2ccc(F)cc2c2c(=O)c3cc(F)ccc3sc12,6.9 µM,,4.47,3.67 µM,3.92 µM,3.15,4.28 µM,24.1 µM,1.64 µM,1.62,1.77 µM,1.94 µM,1.88,3.59,1.63 µM,1.91 µM,9.72 µM,1.98 µM,4.91 µM,
CCSc1nc(N)c(C#N)c(-c2ccc(OC)c(OC)c2)c1C#N,40.7 µM,> 50 µM,35.1,> 50 µM,,> 50,,> 50 µM,15.8 µM,11.1,> 50 µM,,19.1,> 50,26 µM,,39.5 µM,11.8 µM,37.6 µM,17.5 µM
Fc1cccc(-c2nc(-c3c[nH]c4ncccc34)cs2)c1,,> 100 µM,> 100,> 100 µM,> 100 µM,> 100,> 100 µM,> 100 µM,,38.2,> 100 µM,> 100 µM,36.8,> 100,60.5 µM,5.62 µM,44.8 µM,> 100 µM,> 100 µM,> 100 µM
COc1ncc(-c2ccc3ncnc(Nc4cccc(Cl)c4)c3c2)cc1NS(C)(=O)=O,2.94 µM,7.36 µM,19.2,6.51 µM,5.21 µM,7.7,,9.32 µM,0.605 µM,1.99,0.273 µM,1.49 µM,1.71,10.8,1.17 µM,,1.92 µM,3.91 µM,> 100 µM,1.75 µM
O=c1c2cc(Br)ccc2n(C2OC(CO)C(O)C(O)C2O)c(=S)n1-c1ccccc1 (stereo not drawn),> 100 µM,> 100 µM,> 100,> 100 µM,> 100 µM,> 100,> 100 µM,,,,,,,> 100,,,,,> 100 µM,
CCCCCC/C=C\CCCCCCCCCc1cccc(OC)c1O,> 100 µM,> 100 µM,> 100,> 100 µM,> 100 µM,,> 100 µM,> 100 µM,,,,,,> 100,,,,,,
Nc1ncc(-c2ccc3ncnc(N4CCc5cc(F)c(Cl)cc54)c3c2)cc1C(F)(F)F,,,> 100,> 100 µM,> 100 µM,> 100,> 100 µM,8.33 µM,,1.24,1.23 µM,2.13 µM,2.03,> 100,1.39 µM,1.44 µM,1.07 µM,1.67 µM,> 100 µM,
COc1ccccc1C(=O)Nc1ccc(Cl)c(C(=O)OC(C)C)c1,> 90.4 µM,> 100 µM,> 95.2,> 83.4 µM,> 76.5 µM,> 65.4,> 100 µM,> 100 µM,,,,,,> 100,,,,,,
COc1ccccc1CNC(=O)/C=C/c1ccc(O)c(O)c1,> 100 µM,> 100 µM,> 100,> 100 µM,,> 100,> 100 µM,> 100 µM,> 100 µM,90.7,> 100 µM,,> 100,> 100,67.3 µM,50.3 µM,40.2 µM,,,24.4 µM
COc1ccc(/C=C\c2cc(OC)c(OC)c(OC)c2)cc1N/C=C\C(=O)c1c[nH]c2ccccc12,0.0153 µM,< 0.01 µM,> 100,> 100 µM,> 100 µM,< 0.01,57.2 µM,,< 0.01 µM,< 0.01,< 0.01 µM,< 0.01 µM,< 0.01,> 100,< 0.01 µM,5 µM,,< 0.01 µM,> 100 µM,< 0.01 µM
CC[C@H](C)C(=O)O[C@H]1C[C@@H](C)C=C2C=C[C@H](C)[C@H](CC[C@@H]3C[C@@H](O)CC(=O)O3)[C@H]21,2.2 µM and 1.1 µM and 2.82 µM,51.3 µM and > 52.4 µM and 14.7 µM,,> 100 µM and 32.9 µM and > 30 µM,> 100 µM and 53.4 µM and > 30 µM,> 100,> 100 µM and 31.6 µM and > 30 µM,> 100 µM and 25.2 µM,0.283 µM and 0.162 µM,,12.5 µM and 10.3 µM,49.2 µM and 21.4 µM,,,16.2 µM and 25.2 µM,14.1 µM and 15.2 µM,11.3 µM and 8.48 µM,3 µM and 3.5 µM,17.3 µM and 25.4 µM and > 30 µM,14.6 µM and 15.3 µM
COc1cc2ccnc(-c3n[nH]c4cc(OC)c(OC)cc34)c2cc1OC,> 100 µM,> 100 µM,> 100,> 100 µM,> 100 µM,> 100,> 100 µM,,,,,,,> 100,,,,,> 100 µM,
CC(=O)Nc1ccc(S(=O)(=O)N/N=C(\C)CN2C(=O)c3ccccc3C2=O)cc1,> 100 µM,> 100 µM,,> 100 µM,> 100 µM,> 100,> 100 µM,,,,,,,> 100,,,,,> 100 µM,
CCN1C(=O)N[C@H]2[C@@H]3NC(=O)c4ccc(Cl)n4[C@@H]3C[C@]21O,6.16 µM,1.56 µM,52.3,,2.37 µM,10.3,4.66 µM,4.29 µM,1.82 µM,0.502,,0.346 µM,1,4.93,0.542 µM,0.653 µM,0.41 µM,0.257 µM,0.983 µM,0.369 µM
O=C1c2ccccc2-c2c1c1ccc3ccccc3c1n2-c1ccccc1,,> 100 µM,52.3,> 100 µM,> 100 µM,57.6,66.2 µM,> 100 µM,,20,29.2 µM,> 100 µM,22.9,67.4,24.6 µM,28.1 µM,44.7 µM,41.9 µM,> 100 µM,30.7 µM
